One block for each molecule: values may come before it.
Tests used:
Nod2 [1] = molecular target: T1, Nod2 (Homo sapiens, UniProt Q9HC29); details: cited from earlier work
T1 construct: expressed in transfected cells

Nod2 [2] = molecular target: T1, Nod2; assay: Nod2-dependent activation of NF-κB; type: cell-based; details: 10 ng (FIG. 2d)
Protocol: (§1) Studies examining the activation of NF-κB by LPS, lipid A, lipoproteins or the purified PGNs in cells over-expressing Nod1 were carried out as described by Inohara et al. (9). Briefly, HEK293 cells were transfected overnight with 10 ng of Nod 1. At the same time, the LPS, lipoproteins or peptidoglycan preparations were added and the NF-κB-dependent luciferase activation was then measured following 24 h of co-incubation.
(§2) NF-κB-dependent luciferase assays were performed in duplicate and data represent at least 3 independent experiments.
(§3) In FIG. 2a, PGN muropeptides from N. meningitides were separated by reverse-phase HPLC and subsequently analysed by mass spectroscopy (see supporting on-line text). […] In FIG. 2d, equivalent amounts (10 ng) of GM-dipeptide (GM-di; synthetic source), GM-tripeptide (GMtri), or GM-tetrapeptide (GM-tetra) were tested for stimulation of Nod 1-, Nod2- or TLR2-dependent activation of NF-κB. […] Buff, buffer diluent of the muropeptides.

Nod1 [3] = molecular target: T2, Nod1 (Homo sapiens, UniProt Q9Y239); assay: Nod1-dependent NF-κB luciferase activation in Nod1-overexpressing HEK293 cells; type: cell-based; set-up: expressed in transfected cells; host or cells: HEK293; details: for detection by Nod1: FIG. 8B-8D, additional experiments; for Nod1-dependent activation of NF-κB by muropeptides: 10 ng (FIG. 2d); for stimulation of the Nod1 pathway by HPLC fractions of N. meningitidis PGN muropeptides: 1% of the volume of each HPLC fraction (FIG. 2b); for stimulation of the Nod1 pathway (NF-κB activation): LPS, lipid A, lipoproteins preparations at 10 μg/ml (FIG. 1a, 1b)
T2 sequence (Q9Y239 1-953): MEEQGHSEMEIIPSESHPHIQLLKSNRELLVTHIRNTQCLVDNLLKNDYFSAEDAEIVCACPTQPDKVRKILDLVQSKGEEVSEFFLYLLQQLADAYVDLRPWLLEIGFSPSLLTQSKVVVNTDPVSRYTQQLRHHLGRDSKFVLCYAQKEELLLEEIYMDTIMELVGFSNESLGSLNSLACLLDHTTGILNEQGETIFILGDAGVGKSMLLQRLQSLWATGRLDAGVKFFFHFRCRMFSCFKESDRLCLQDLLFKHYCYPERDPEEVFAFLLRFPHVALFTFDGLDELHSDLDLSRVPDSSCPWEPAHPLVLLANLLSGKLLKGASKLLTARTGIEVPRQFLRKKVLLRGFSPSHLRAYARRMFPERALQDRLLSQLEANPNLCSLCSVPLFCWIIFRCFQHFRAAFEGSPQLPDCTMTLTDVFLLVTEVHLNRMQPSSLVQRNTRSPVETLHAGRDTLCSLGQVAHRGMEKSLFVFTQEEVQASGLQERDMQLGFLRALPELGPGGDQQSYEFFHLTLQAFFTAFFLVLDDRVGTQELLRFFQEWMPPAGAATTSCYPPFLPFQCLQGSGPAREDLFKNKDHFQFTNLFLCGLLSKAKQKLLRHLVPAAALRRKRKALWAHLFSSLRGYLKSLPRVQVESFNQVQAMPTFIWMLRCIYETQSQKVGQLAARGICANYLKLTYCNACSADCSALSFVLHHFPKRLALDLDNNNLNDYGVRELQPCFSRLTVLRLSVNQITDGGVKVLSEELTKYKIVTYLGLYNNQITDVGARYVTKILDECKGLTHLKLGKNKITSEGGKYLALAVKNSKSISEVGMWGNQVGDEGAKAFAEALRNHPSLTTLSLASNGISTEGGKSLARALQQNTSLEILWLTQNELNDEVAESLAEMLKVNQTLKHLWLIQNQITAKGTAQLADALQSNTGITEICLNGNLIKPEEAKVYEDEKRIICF
Protocol: as §1, §2

Nod1 [4] = molecular target: T2, Nod1; assay: Nod1-dependent IL-8 production in HeLa epithelial cells (ELISA); type: cell-based; set-up: expressed in transfected cells; details: HeLa cells transfected with 10 ng Nod1; 18 h; IL-1 at 10 ng/ml (FIG. 2f)
Protocol: To measure Nod1-dependent IL-8 produced in epithelial cells by muropeptides, 5×10^5HeLa cells were seeded into each well of a twelve well plate and transfected the following day with 10 ng Nod1 plus the individual muropeptides (as described above) or treated with IL-1 as a positive control. Eighteen hours later, supernatants were collected and assayed for IL-8 as previously described (10) using an ELISA kit (R and D Systems).
as §3

[5] = tested on: NF-κB p65 in intestinal epithelial cells from Nod1-deficient mice; assay: NF-κB p65 nuclear translocation in intestinal epithelial cells from Nod1-deficient mice; type: cell-based; details: microinjection of supernatants; TNFα 10 ng/ml
macrophages = assay: Activation of macrophages; type: cell-based

T1 sequence (Q9HC29 whole entry): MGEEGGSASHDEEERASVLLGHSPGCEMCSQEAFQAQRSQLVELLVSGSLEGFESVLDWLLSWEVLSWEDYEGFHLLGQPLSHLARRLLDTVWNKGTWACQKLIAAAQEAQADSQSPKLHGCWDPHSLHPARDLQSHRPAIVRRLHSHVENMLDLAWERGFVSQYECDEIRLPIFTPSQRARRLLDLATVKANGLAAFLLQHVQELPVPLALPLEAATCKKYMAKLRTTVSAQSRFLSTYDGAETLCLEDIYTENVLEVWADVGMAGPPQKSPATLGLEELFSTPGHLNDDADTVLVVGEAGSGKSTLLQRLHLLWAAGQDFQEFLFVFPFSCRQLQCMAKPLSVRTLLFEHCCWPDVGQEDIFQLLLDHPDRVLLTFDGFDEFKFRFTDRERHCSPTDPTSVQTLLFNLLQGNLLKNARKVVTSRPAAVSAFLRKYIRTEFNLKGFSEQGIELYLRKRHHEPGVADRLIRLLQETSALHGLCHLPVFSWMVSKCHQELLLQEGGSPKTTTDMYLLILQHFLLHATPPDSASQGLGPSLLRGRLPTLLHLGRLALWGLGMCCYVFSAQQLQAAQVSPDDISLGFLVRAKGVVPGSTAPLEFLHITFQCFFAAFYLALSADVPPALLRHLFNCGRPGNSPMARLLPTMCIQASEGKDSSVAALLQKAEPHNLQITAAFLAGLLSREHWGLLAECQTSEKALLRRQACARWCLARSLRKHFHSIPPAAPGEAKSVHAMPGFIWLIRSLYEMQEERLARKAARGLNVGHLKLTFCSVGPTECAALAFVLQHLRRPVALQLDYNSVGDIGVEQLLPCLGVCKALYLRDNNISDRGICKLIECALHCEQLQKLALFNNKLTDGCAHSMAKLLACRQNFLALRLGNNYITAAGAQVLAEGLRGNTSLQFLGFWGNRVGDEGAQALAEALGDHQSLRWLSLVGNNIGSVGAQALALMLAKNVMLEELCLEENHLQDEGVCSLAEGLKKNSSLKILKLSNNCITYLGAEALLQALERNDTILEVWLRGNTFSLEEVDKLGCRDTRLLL

Molecule: CC(=O)N[C@H]1C(O)O[C@H](CO)[C@@H](O)[C@@H]1O[C@H](C)C(=O)N[C@@H](C)C(=O)N[C@H](CCC(=O)O)C(N)=O (mixture of isomers) [M-dipeptide, muramyl dipeptide]
recognition by Nod2 (previous findings) (Nod2 [1]): recognizes

Nod2-dependent activation of NF-κB by muropeptides (Nod2 [2]): detects
Molecule: CC(=O)N[C@H]1[C@H](O[C@H]2[C@H](O[C@H](C)C(=O)N[C@@H](C)C(=O)N[C@H](CCC(=O)O)C(N)=O)[C@@H](NC(C)=O)C(O)O[C@@H]2CO)O[C@H](CO)[C@@H](O)[C@@H]1O (stereo partly drawn) [GM-dipeptide]

detection by Nod1 (Nod1 [3]): detects
Molecule: CC(=O)NC1C(O)OC(CO)C(O)C1OC(C)C(=O)NC(C)C(=O)NC(CCC(=O)NC(CCCC(N)C(=O)O)C(=O)O)C(=O)O (stereo not drawn) [MurTriDAP]

detection by Nod1 (Nod1 [3]): detects
Molecule: CC(=O)N[C@H]1[C@@H](OP(=O)(O)OP(=O)(O)OC[C@H]2O[C@@H](n3ccc(=O)[nH]c3=O)[C@H](O)[C@@H]2O)O[C@H](CO)[C@@H](O)[C@@H]1O[C@H](C)C(=O)N[C@@H](C)C(=O)N[C@H](CCC(=O)N[C@@H](CCC[C@@H](N)C(=O)O)C(=O)O)C(=O)O [UDP-MurTriDAP]

Molecule: C[C@H](N)C(=O)N[C@H](CCC(=O)NC(CCCC(N)C(=O)O)C(=O)O)C(=O)O (stereo partly drawn) [tripeptide L-Ala-D-Glu-mesoDAP, L-Ala-D-Glu-mesoDAP]
detection by Nod1 (Nod1 [3]): able to sense | detection by Nod1 (Nod1 [3]; listed as TriDAP): detects

Molecule: GlcNAc-MurNAc-L-Ala-D-Glu-mesoDAP [GM-tripeptide]
production of IL-8 (Nod1 [4]): production of the pro-inflammatory chemokine, IL-8 | Nod1-dependent activation of NF-κB by muropeptides (Nod1 [3]): specifically detects | stimulation of the Nod1 pathway by HPLC fractions of N. meningitidis PGN muropeptides (Nod1 [3]): activates Nod1 | detection by Nod1 (Nod1 [3]): detects

Molecule: GlcNAc-MurNAc-L-Ala-D-Glu-mesoDAP(GlcNAc-MurNAc-L-Ala-D-Glu-mesoDAP-D-Ala)-D-Ala [dimeric GM-tetrapeptide, reference compound]
stimulation of the Nod1 pathway by HPLC fractions of N. meningitidis PGN muropeptides (Nod1 [3]): does not activate Nod1

Molecule: GlcNAc-MurNAc-L-Ala-D-Glu-mesoDAP-DAla [GM-tetrapeptide]
Nod1-dependent activation of NF-κB by muropeptides (Nod1 [3]): not sensed

Molecule: GlcNAc-anhydro-MurNAc-L-Ala-D-GlumesoDAP [anhydrous GM-tripeptide]
stimulation of the Nod1 pathway by HPLC fractions of N. meningitidis PGN muropeptides (Nod1 [3]): activates Nod1

Molecule: Lpp: the most abundant lipoprotein in E. coli (lipidated)
stimulation of the Nod1 pathway (NF-κB activation) (Nod1 [3]): not possible to stimulate the Nod1 pathway

Molecule: Pam3Cys-Ser-Lys4-OH [synthetic lipopeptide, reference compound]
stimulation of the Nod1 pathway (NF-κB activation) (Nod1 [3]): not possible to stimulate the Nod1 pathway

Molecule: TNFα
NF-κB nuclear translocation in Nod1-deficient cells [5]: can efficiently stimulate NF-κB nuclear translocation

stimulation of the Nod1 pathway (NF-κB activation) (Nod1 [3]): could not stimulate the Nod1 pathway
Molecule: lipid A [reference compound]
activation of macrophages (macrophages): could efficiently activate macrophages
